Reference: ChEMBL document CHEMBL1133517, “Design, radiosynthesis, and biodistribution of a new potent and selective ligand for in vivo imaging of the adenosine A(2A) receptor system using positron emission tomography” (J Med Chem, 2000)

Experiments:
Rattus norvegicus [1] = organism: Rattus norvegicus; assay: Biodistribution in rat testes after 5 min time interval; type: ADME, organism-based, Testis; conditions: in vivo
Rattus norvegicus [2] = organism: Rattus norvegicus; assay: Biodistribution in rat lung after 60 min time interval; type: ADME, organism-based; conditions: in vivo, 1 h
Rattus norvegicus [3] = organism: Rattus norvegicus; assay: Biodistribution in rat heart after 60 min time interval; type: ADME, organism-based; conditions: in vivo, 1 h
Rattus norvegicus [4] = organism: Rattus norvegicus; assay: Biodistribution in rat striatum after 90 min time interval; type: ADME, organism-based; conditions: in vivo, 1.5 h
Rattus norvegicus [5] = organism: Rattus norvegicus; assay: Biodistribution in rat heart after 30 min time interval; type: ADME, organism-based; conditions: in vivo, 0.5 h
Rattus norvegicus [6] = organism: Rattus norvegicus; assay: Biodistribution in rat heart after 90 min time interval; type: ADME, organism-based; conditions: in vivo, 1.5 h
Rattus norvegicus [7] = organism: Rattus norvegicus; assay: Biodistribution in rat post-CTX after 60 min time interval; type: ADME, organism-based; conditions: in vivo, 1 h
Rattus norvegicus [8] = organism: Rattus norvegicus; assay: Biodistribution in rat thalamus after 15 min time interval; type: ADME, organism-based; conditions: in vivo, 0.25 h
Rattus norvegicus [9] = organism: Rattus norvegicus; assay: Biodistribution in rat hippocampus after 5 min time interval; type: ADME, organism-based; conditions: in vivo
Rattus norvegicus [10] = organism: Rattus norvegicus; assay: Biodistribution in rat pituitary after 90 min time interval; type: ADME, organism-based; conditions: in vivo, 1.5 h
Rattus norvegicus [11] = organism: Rattus norvegicus; assay: Biodistribution in rat cerebellem after 90 min time interval; type: ADME, organism-based, Cerebellum; conditions: in vivo, 1.5 h
Rattus norvegicus [12] = organism: Rattus norvegicus; assay: Biodistribution in rat striatum after 60 min time interval; type: ADME, organism-based; conditions: in vivo, 1 h
Rattus norvegicus [13] = organism: Rattus norvegicus; assay: Biodistribution in rat hippocampus after 15 min time interval; type: ADME, organism-based; conditions: in vivo, 0.25 h
Rattus norvegicus [14] = organism: Rattus norvegicus; assay: Biodistribution in rat hypothalamus after 60 min time interval; type: ADME, organism-based; conditions: in vivo, 1 h
Rattus norvegicus [15] = organism: Rattus norvegicus; assay: Biodistribution in rat blood after 90 min time interval; type: ADME, organism-based; conditions: in vivo, 1.5 h
Rattus norvegicus [16] = organism: Rattus norvegicus; assay: Biodistribution in rat cerebellem after 60 min time interval; type: ADME, organism-based, Cerebellum; conditions: in vivo, 1 h
Rattus norvegicus [17] = organism: Rattus norvegicus; assay: Biodistribution in rat anti-CTX after 30 min time interval; type: ADME, organism-based; conditions: in vivo, 0.5 h
Rattus norvegicus [18] = organism: Rattus norvegicus; assay: Biodistribution in rat testes after 90 min time interval; type: ADME, organism-based, Testis; conditions: in vivo, 1.5 h
Rattus norvegicus [19] = organism: Rattus norvegicus; assay: Biodistribution in rat plasma after 15 min time interval; type: ADME, organism-based; conditions: in vivo, 0.25 h
Rattus norvegicus [20] = organism: Rattus norvegicus; assay: Biodistribution in rat anti-CTX after 15 min time interval; type: ADME, organism-based; conditions: in vivo, 0.25 h
Rattus norvegicus [21] = organism: Rattus norvegicus; assay: Biodistribution in rat spleen after 90 min time interval; type: ADME, organism-based; conditions: in vivo, 1.5 h
Rattus norvegicus [22] = organism: Rattus norvegicus; assay: Biodistribution in rat plasma after 30 min time interval; type: ADME, organism-based; conditions: in vivo, 0.5 h
Rattus norvegicus [23] = organism: Rattus norvegicus; assay: Biodistribution in rat testes after 30 min time interval; type: ADME, organism-based, Testis; conditions: in vivo, 0.5 h
Rattus norvegicus [24] = organism: Rattus norvegicus; assay: Biodistribution in rat muscle after 5 min time interval; type: ADME, organism-based, Muscle tissue; conditions: in vivo
Rattus norvegicus [25] = organism: Rattus norvegicus; assay: Biodistribution in rat adrenal after 60 min time interval; type: ADME, organism-based; conditions: in vivo, 1 h
Rattus norvegicus [26] = organism: Rattus norvegicus; assay: Biodistribution in rat hypothalamus after 5 min time interval; type: ADME, organism-based; conditions: in vivo
Rattus norvegicus [27] = organism: Rattus norvegicus; assay: Biodistribution in rat intestine after 90 min time interval; type: ADME, organism-based; conditions: in vivo, 1.5 h
Rattus norvegicus [28] = organism: Rattus norvegicus; assay: Biodistribution in rat post-CTX after 15 min time interval; type: ADME, organism-based; conditions: in vivo, 0.25 h
Rattus norvegicus [29] = organism: Rattus norvegicus; assay: Biodistribution in rat post-CTX after 5 min time interval; type: ADME, organism-based; conditions: in vivo
Rattus norvegicus [30] = organism: Rattus norvegicus; assay: Biodistribution in rat pons after 90 min time interval; type: ADME, organism-based; conditions: in vivo, 1.5 h
Rattus norvegicus [31] = organism: Rattus norvegicus; assay: Biodistribution in rat trachea after 5 min time interval; type: ADME, organism-based; conditions: in vivo
Rattus norvegicus [32] = organism: Rattus norvegicus; assay: Biodistribution in rat liver after 90 min time interval; type: ADME, organism-based; conditions: in vivo, 1.5 h
Rattus norvegicus [33] = organism: Rattus norvegicus; assay: Biodistribution in rat cerebellem after 15 min time interval; type: ADME, organism-based, Cerebellum; conditions: in vivo, 0.25 h
Rattus norvegicus [34] = organism: Rattus norvegicus; assay: Biodistribution in rat kidney after 60 min time interval; type: ADME, organism-based; conditions: in vivo, 1 h
Rattus norvegicus [35] = organism: Rattus norvegicus; assay: Biodistribution in rat hippocampus after 60 min time interval; type: ADME, organism-based; conditions: in vivo, 1 h
Rattus norvegicus [36] = organism: Rattus norvegicus; assay: Biodistribution in rat liver after 60 min time interval; type: ADME, organism-based; conditions: in vivo, 1 h
Rattus norvegicus [37] = organism: Rattus norvegicus; assay: Biodistribution in rat spleen after 60 min time interval; type: ADME, organism-based; conditions: in vivo, 1 h
Rattus norvegicus [38] = organism: Rattus norvegicus; assay: Biodistribution in rat muscle after 30 min time interval; type: ADME, organism-based, Muscle tissue; conditions: in vivo, 0.5 h
Rattus norvegicus [39] = organism: Rattus norvegicus; assay: Biodistribution in rat thalamus after 5 min time interval; type: ADME, organism-based; conditions: in vivo
Rattus norvegicus [40] = organism: Rattus norvegicus; assay: Biodistribution in rat lung after 30 min time interval; type: ADME, organism-based; conditions: in vivo, 0.5 h
Rattus norvegicus [41] = organism: Rattus norvegicus; assay: Biodistribution in rat adrenal after 90 min time interval; type: ADME, organism-based; conditions: in vivo, 1.5 h
Rattus norvegicus [42] = organism: Rattus norvegicus; assay: Biodistribution in rat muscle after 60 min time interval; type: ADME, organism-based, Muscle tissue; conditions: in vivo, 1 h
Rattus norvegicus [43] = organism: Rattus norvegicus; assay: Biodistribution in rat plasma after 5 min time interval; type: ADME, organism-based; conditions: in vivo
Rattus norvegicus [44] = organism: Rattus norvegicus; assay: Biodistribution in rat post-CTX after 90 min time interval; type: ADME, organism-based; conditions: in vivo, 1.5 h
Rattus norvegicus [45] = organism: Rattus norvegicus; assay: Biodistribution in rat kidney after 15 min time interval; type: ADME, organism-based; conditions: in vivo, 0.25 h
Rattus norvegicus [46] = organism: Rattus norvegicus; assay: Biodistribution in rat anti-CTX after 90 min time interval; type: ADME, organism-based; conditions: in vivo, 1.5 h
Rattus norvegicus [47] = organism: Rattus norvegicus; assay: Biodistribution in rat trachea after 90 min time interval; type: ADME, organism-based; conditions: in vivo, 1.5 h
Rattus norvegicus [48] = organism: Rattus norvegicus; assay: Biodistribution in rat spleen after 30 min time interval; type: ADME, organism-based; conditions: in vivo, 0.5 h
Rattus norvegicus [49] = organism: Rattus norvegicus; assay: Biodistribution in rat intestine after 60 min time interval; type: ADME, organism-based; conditions: in vivo, 1 h
Rattus norvegicus [50] = organism: Rattus norvegicus; assay: Biodistribution in rat testes after 15 min time interval; type: ADME, organism-based, Testis; conditions: in vivo, 0.25 h

ID/g (Rattus norvegicus [1]): 0.12%
ID/g (Rattus norvegicus [2]): 0.37%
ID/g (Rattus norvegicus [3]): 0.04%
ID/g (Rattus norvegicus [4]): 0.04%
ID/g (Rattus norvegicus [5]): 0.09%
ID/g (Rattus norvegicus [6]): 0.04%
ID/g (Rattus norvegicus [7]): 0.02%
ID/g (Rattus norvegicus [8]): 0.1%
ID/g (Rattus norvegicus [9]): 0.17%
ID/g (Rattus norvegicus [10]): 0.03%
ID/g (Rattus norvegicus [11]): 0.02%
ID/g (Rattus norvegicus [12]): 0.06%
ID/g (Rattus norvegicus [13]): 0.09%
ID/g (Rattus norvegicus [14]): 0.02%
ID/g (Rattus norvegicus [15]): 0.05%
ID/g (Rattus norvegicus [16]): 0.02%
ID/g (Rattus norvegicus [17]): 0.06%
ID/g (Rattus norvegicus [18]): 0.03%
ID/g (Rattus norvegicus [19]): 0.13%
ID/g (Rattus norvegicus [20]): 0.12%
ID/g (Rattus norvegicus [21]): 0.05%
ID/g (Rattus norvegicus [22]): 0.08%
ID/g (Rattus norvegicus [23]): 0.23%
ID/g (Rattus norvegicus [24]): 0.15%
ID/g (Rattus norvegicus [25]): 0.13%
ID/g (Rattus norvegicus [26]): 0.16%
ID/g (Rattus norvegicus [27]): 0.16%
ID/g (Rattus norvegicus [28]): 0.1%
ID/g (Rattus norvegicus [29]): 0.19%
ID/g (Rattus norvegicus [30]): 0.02%
ID/g (Rattus norvegicus [31]): 0.17%
ID/g (Rattus norvegicus [32]): 0.37%
ID/g (Rattus norvegicus [33]): 0.1%
ID/g (Rattus norvegicus [34]): 0.13%
ID/g (Rattus norvegicus [35]): 0.02%
ID/g (Rattus norvegicus [36]): 0.36%
ID/g (Rattus norvegicus [37]): 0.06%
ID/g (Rattus norvegicus [38]): 0.05%
ID/g (Rattus norvegicus [39]): 0.2%
ID/g (Rattus norvegicus [40]): 0.2%
ID/g (Rattus norvegicus [41]): 0.14%
ID/g (Rattus norvegicus [42]): 0.04%
ID/g (Rattus norvegicus [43]): 0.19%
ID/g (Rattus norvegicus [44]): 0.02%
ID/g (Rattus norvegicus [45]): 0.49%
ID/g (Rattus norvegicus [46]): 0.02%
ID/g (Rattus norvegicus [47]): 0.03%
ID/g (Rattus norvegicus [48]): 0.07%
ID/g (Rattus norvegicus [49]): 0.1%
ID/g (Rattus norvegicus [50]): 0.13%
Compound: [11CH3]Oc1ccc(CCCn2ncc3c2nc(N)n2nc(-c4ccco4)nc32)cc1
